According to patent publication US10703777B2, “Miniature protein scaffolds and methods for use thereof” (New York University, priority 2017, dated 2020):
“Also recorded” adds a separate entry of the source.

Tests used:
Assay type in all cases: physicochemical
[1] = Sedimentation equilibrium analysis; settings: concentration of 1.8 mM at 4° C.
Description: Sedimentation equilibrium measurements were carried out on a Beckman (Brea, Calif.) XL-A analytical ultracentrifuge equipped with absorption optics and an An-60 Ti rotor. Analysis was conducted at rotor speeds of 45,000 and 48,000 rpm at 4° C. Data were acquired at two wavelengths per rotor speed setting and processed globally for the best fit to a single-species model of absorbance versus radial distance. Solvent density and protein partial specific volume were calculated according to solvent and protein composition, respectively.
The native sequence on which to initiate the mini-protein design was chosen based on two primary criteria. First, the present inventors sought a sequence containing a loop featuring a β-hairpin, which could be nucleated using a D-Pro-Gly motif (2, 7). Most of the loop regions observed in WSXWS motifs are lacking in canonical forms of secondary structure that could be enforced with rational peptide design (FIG. 2). Second, the present inventors wanted a sequence containing three arginine residues on the β-strand portion of the fold composing the cation-π interaction network. The only sequence meeting these two criteria was that of the WSXWS motif found in IL3RB (UniprotID: P32927). […] The apparent molecular mass was within 10% of that calculated for an ideal monomer, with no systematic deviation of the residuals. […]

[2] = Near-UV CD thermal melts monitoring mean residue ellipticity at 280 nm; settings: 10 mM PBS buffer pH 7.5, elevated temperatures
Description: FIGS. 6A-6B. Near-UV CD thermal melts for the TrpPlexus cation-π interation network mutants. (6A) Schematic of the cation-π network of TrpPlexus detailing variable amino acid positions 1, 3, and 5 in the mutant sequences. (6B) Near-UV CD thermal melts for TrpPlexus (“RRR”) and each mutant monitoring mean residue ellipticity at 280 nm (50 μM protein, 1 cm path length, 10 mM PBS buffer pH 7.5). Inset compares side-chain functionalities of the arginine (R), lysine (K), and L-citrulline (Cit) residues.
CD spectra were collected using an Aviv (Lakewood, N.J.) stopped flow CD Spectropolarimeter Model 202SF. […] Concentrations of protein stock solutions for conversion of millidegrees to mean residue ellipticity (MRE) were determined by UV absorbance at 280 nm using the standard extinction coefficients for the tryptophan (5690 M-1 cm-1), tyrosine (1280M-1 cm-1), and disulfide-bridged cysteine (125M-1 cm-1) chromophores in 6 M GnCl. […]
To explore the influence of cationic groups on fold stability, mutants were designed that replaced particular guanidinyl (arginine) side chain groups with either amino (lysine) cations or charge-neutral urea (L-citrulline) groups (FIG. 6). The near-UV CD signal monitored at 280 nm provides a metric of relative tertiary structure content (FIG. 6B). […]

[3] = Guanidinium chloride (GnCl) titration monitored by near-UV CD at 280 nm; settings: standard aqueous conditions at 25° C.; extrapolated from variable GnCl concentration near-UV CD data (280 nm), 50 μM protein
Description: CD spectra were collected using an Aviv (Lakewood, N.J.) stopped flow CD Spectropolarimeter Model 202SF. The far-UV (190-260 nm) CD spectra were obtained using a 1 mm path length cell and in 10 mM PBS buffer at a pH of 7.5 at 100 μM protein concentrations. The near-UV (245-320 nm) CD spectra were obtained using a 1 cm path length cell and in 10 mM PBS buffer at a pH of 7.5 at 50 μM concentrations. The consensus CD spectra were established as the Gaussian weighted average of 40 scans with evaluation of ellipticity every 0.5 nm, each having an averaging time of 0.5 s. […] Concentrations of protein stock solutions for conversion of millidegrees to mean residue ellipticity (MRE) were determined by UV absorbance at 280 nm using the standard extinction coefficients for the tryptophan (5690 M-1 cm-1), tyrosine (1280M-1 cm-1), and disulfide-bridged cysteine (125M-1 cm-1) chromophores in 6 M GnCl. […]
Secondary and tertiary structure content of the mini-protein was initially evaluated using circular dichroism (CD) spectroscopy (FIG. 4A,B). In the near-UV (260-320 nm) CD spectrum, ellipticity can arise from indole and phenol absorbance bands when tryptophan or tyrosine side chains are present in an asymmetric environment. […]

Question: Which results are given for RVRVRTSRpGYNGTWSEWS [TrpPlexus]?
Answer: oligomeric state by sedimentation equilibrium [1]: monomeric; near-UV CD signal as a function of temperature (thermostability) [2]: slightly increase in strength at elevated temperatures, indicating thermostability; also recorded: weakly sigmoidal transitions to stronger ellipticities at elevated temperatures; ΔG° for folding [3]: approximately −6.7 kcal/mol
